Laboratory results taken from patent US4822790A, “1-Sulfo-2-oxoazetidine derivatives and their production” (Takeda Chemical Industries, Ltd., priority 1980, dated 1989).

Assays:
Type in all cases: cell-based
[1] = tested on: Proteus morganii IFO 3168; experiment: Antibacterial test (MIC), Proteus morganii IFO 3168; details: medium TSA
Description: (§1) The following is media and compounds employed in the antibacterial test.
(§2) TSA=Trypticase soy agar [Baltimore Biologicals (U.S.A.)]
(§3) B-TSA=Blood trypticase soy agar

[2] = tested on: Klebsiella pneumoniae DT; experiment: Antibacterial test (MIC), Klebsiella pneumoniae DT; details: medium TSA
Description: as §1, §2, §3

[3] = tested on: Serratia marcescens IFO 12648; experiment: Antibacterial test (MIC), Serratia marcescens IFO 12648; details: medium TSA
Description: as §1, §2, §3

[4] = tested on: Streptococcus mitis America; experiment: Antibacterial test (MIC), Streptococcus mitis America; details: medium B-TSA
Description: as §1, §2, §3

[5] = tested on: Enterobacter cloacae IFO 12937; experiment: Antibacterial test (MIC), Enterobacter cloacae IFO 12937; details: medium TSA
Description: as §1, §2, §3

[6] = tested on: Staphylococcus aureus 1840; experiment: Antibacterial test (MIC), Staphylococcus aureus 1840; details: medium TSA
Description: as §1, §2, §3

[7] = tested on: Streptococcus pyogenes E-14; experiment: Antibacterial test (MIC), Streptococcus pyogenes E-14; details: medium B-TSA
Description: as §1, §2, §3

[8] = tested on: Pseudomonas aeruginosa U 31; experiment: Antibacterial test (MIC), Pseudomonas aeruginosa U 31; details: medium TSA
Description: as §1, §2, §3

[9] = tested on: Staphylococcus aureus FDA209P; experiment: Antibacterial test (MIC), Staphylococcus aureus FDA209P
Description: as §1, §2, §3

[10] = tested on: Escherichia coli NIHJ JC-2; experiment: Antibacterial test (MIC), Escherichia coli NIHJ JC-2; details: medium TSA
Description: as §1, §2, §3

[11] = tested on: Escherichia coli T-7; experiment: Antibacterial test (MIC), Escherichia coli T-7; details: medium TSA
Description: as §1, §2, §3

[12] = tested on: Pseudomonas aeruginosa IFO 3455; experiment: Antibacterial test (MIC), Pseudomonas aeruginosa IFO 3455; details: medium TSA
Description: as §1, §2, §3

[13] = tested on: Escherichia coli 0-111; experiment: Antibacterial test (MIC), Escherichia coli 0-111; details: medium TSA
Description: as §1, §2, §3

[14] = tested on: Proteus vulgaris IFO 3988; experiment: Antibacterial test (MIC), Proteus vulgaris IFO 3988; details: medium TSA
Description: as §1, §2, §3

[15] = tested on: Candida albicans TA; experiment: Antibacterial test (MIC), Candida albicans TA; details: medium TSA
Description: as §1, §2, §3

[16] = tested on: Streptococcus faecium IFO 3128; experiment: Antibacterial test (MIC), Streptococcus faecium IFO 3128; details: medium B-TSA
Description: as §1, §2, §3

[17] = tested on: Proteus mirabilis IFO 3849; experiment: Antibacterial test (MIC), Proteus mirabilis IFO 3849; details: medium TSA
Description: as §1, §2, §3

[18] = tested on: Staphylococcus aureus 308A-1; experiment: Antibacterial test (MIC), Staphylococcus aureus 308A-1; details: medium TSA
Description: as §1, §2, §3

[19] = tested on: Streptococcus pneumoniae Type I; experiment: Antibacterial test (MIC), Streptococcus pneumoniae Type I; details: medium B-TSA
Description: as §1, §2, §3

[20] = tested on: Bordetella bronchiseptica Sagami; experiment: Antibacterial test (MIC), Bordetella bronchiseptica Sagami; details: medium B-TSA
Description: as §1, §2, §3

[21] = tested on: Streptococcus pyogenes S-8; experiment: Antibacterial test (MIC), Streptococcus pyogenes S-8; details: medium B-TSA
Description: as §1, §2, §3

[22] = tested on: Acinetobacter calcoaceticus IFO 13006; experiment: Antibacterial test (MIC), Acinetobacter calcoaceticus IFO 13006; details: medium TSA
Description: as §1, §2, §3

[23] = tested on: Citrobacter freundii IFO 12681; experiment: Antibacterial test (MIC), Citrobacter freundii IFO 12681; details: medium TSA
Description: as §1, §2, §3

[24] = tested on: Corynebacterium diphtheriae Toronto; experiment: Antibacterial test (MIC), Corynebacterium diphtheriae Toronto; details: medium B-TSA
Description: as §1, §2, §3

Structure (SMILES)	Minimum inhibitory concentration (MIC) [1] [µg/mL]	Minimum inhibitory concentration (MIC) [2] [µg/mL]	Minimum inhibitory concentration (MIC) [3] [µg/mL]	Minimum inhibitory concentration (MIC) [4] [µg/mL]	Minimum inhibitory concentration (MIC) [5] [µg/mL]	Minimum inhibitory concentration (MIC) [6] [µg/mL]	Minimum inhibitory concentration (MIC) [7] [µg/mL]	Minimum inhibitory concentration (MIC) [8] [µg/mL]	Minimum inhibitory concentration (MIC) ([9]; medium B-TSA) [µg/mL]	Minimum inhibitory concentration (MIC) ([9]; medium TSA) [µg/mL]	Minimum inhibitory concentration (MIC) [10] [µg/mL]	Minimum inhibitory concentration (MIC) [11] [µg/mL]	Minimum inhibitory concentration (MIC) [12] [µg/mL]	Minimum inhibitory concentration (MIC) [14] [µg/mL]	Minimum inhibitory concentration (MIC) [15] [µg/mL]	Minimum inhibitory concentration (MIC) [16] [µg/mL]	Minimum inhibitory concentration (MIC) [17] [µg/mL]	Minimum inhibitory concentration (MIC) [18] [µg/mL]	Minimum inhibitory concentration (MIC) [19] [µg/mL]	Minimum inhibitory concentration (MIC) [20] [µg/mL]	further results
O=C(NC1CN(S(=O)(=O)[O-])C1=O)C(NC(=O)N1CCN(N=Cc2ccco2)C1=O)c1cccs1.[Na+] (stereo not shown) [Compound L, Sodium 3-[2-[(2-oxo-3-furfurylideneaminoimidazolidin-1-yl)-carboxamido]-2-thienylacetamido]-2-oxoazetidine-1-sulfonate]	12.5	< 0.1	1.56	6.25	25	25	0.78	> 100	6.25	6.25	1.56	> 100	3.13	0.2	> 100	> 100	0.78	3.13	1.56	> 100	Minimum inhibitory concentration (MIC) [13]: < 0.1 µg/mL; Minimum inhibitory concentration (MIC) [21]: 0.78 µg/mL; Minimum inhibitory concentration (MIC) [22]: 50 µg/mL; Minimum inhibitory concentration (MIC) [23]: 1.56 µg/mL; Minimum inhibitory concentration (MIC) [24]: 1.56 µg/mL
CCCCCCCCN1CCN(C(=O)NC(C(=O)NC2CN(S(=O)(=O)[O-])C2=O)c2cccs2)C(=O)C1=O.[Na+] (stereo not shown) [Compound J, Sodium 3-[2-(4-n-octyl-2,3-dioxo-1-piperazinocarboxamido)-2-thienylacetamido]-2-oxoazetidine-1-sulfonate]	1.56	1.56	1.56	25	6.25	6.25	1.56	25	3.13	1.56	3.13	> 100	6.25	1.56	> 100	> 100	3.13	1.56	1.56	> 100	Minimum inhibitory concentration (MIC) [21]: 1.56 µg/mL; Minimum inhibitory concentration (MIC) [22]: 6.25 µg/mL; Minimum inhibitory concentration (MIC) [23]: 3.13 µg/mL; Minimum inhibitory concentration (MIC) [24]: 0.78 µg/mL
